Source: ChEMBL document CHEMBL1944614, “A scaffold hopping approach to identify novel monoamine oxidase B inhibitors” (Bioorg Med Chem Lett, 2012)

Experiments:
[1] = target: T1, Amine oxidase [flavin-containing] B (Homo sapiens, UniProt P27338); assay: Inhibition of human recombinant MAOB using kynuramine as substrate by fluorimetry
T1 sequence (P27338 whole entry): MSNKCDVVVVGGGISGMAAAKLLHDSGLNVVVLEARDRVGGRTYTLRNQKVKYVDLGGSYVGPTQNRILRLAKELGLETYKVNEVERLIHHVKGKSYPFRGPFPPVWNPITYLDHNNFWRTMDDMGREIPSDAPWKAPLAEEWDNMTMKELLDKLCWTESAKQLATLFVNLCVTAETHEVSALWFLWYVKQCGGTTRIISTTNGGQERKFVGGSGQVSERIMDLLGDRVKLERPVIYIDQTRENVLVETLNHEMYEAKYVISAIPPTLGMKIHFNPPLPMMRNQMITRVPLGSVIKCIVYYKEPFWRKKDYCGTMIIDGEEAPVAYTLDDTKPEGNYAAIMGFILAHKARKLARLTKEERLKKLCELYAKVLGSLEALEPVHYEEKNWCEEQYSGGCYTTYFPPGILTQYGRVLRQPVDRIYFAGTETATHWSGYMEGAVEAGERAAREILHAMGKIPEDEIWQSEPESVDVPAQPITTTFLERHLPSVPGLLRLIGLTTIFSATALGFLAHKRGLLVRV

[2] = target: T2, Amine oxidase [flavin-containing] A (Homo sapiens, UniProt P21397); assay: Inhibition of human recombinant MAOA using kynuramine as substrate by fluorimetry
T2 sequence (P21397 whole entry): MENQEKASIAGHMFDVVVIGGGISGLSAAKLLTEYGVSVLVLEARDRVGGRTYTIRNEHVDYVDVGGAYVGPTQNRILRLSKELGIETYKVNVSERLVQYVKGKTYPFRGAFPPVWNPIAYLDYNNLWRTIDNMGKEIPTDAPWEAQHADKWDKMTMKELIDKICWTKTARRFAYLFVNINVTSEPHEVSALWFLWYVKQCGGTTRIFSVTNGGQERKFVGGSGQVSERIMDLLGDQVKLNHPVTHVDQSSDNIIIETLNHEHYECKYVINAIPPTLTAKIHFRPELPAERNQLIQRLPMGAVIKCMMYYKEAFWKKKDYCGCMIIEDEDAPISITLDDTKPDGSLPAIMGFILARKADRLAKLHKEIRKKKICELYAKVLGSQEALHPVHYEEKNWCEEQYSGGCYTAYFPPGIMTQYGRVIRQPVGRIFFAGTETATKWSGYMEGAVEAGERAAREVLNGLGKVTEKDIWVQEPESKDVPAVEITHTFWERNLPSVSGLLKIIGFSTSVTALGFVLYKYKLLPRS

[3] = target: T1, Amine oxidase [flavin-containing] B; assay: Competitive inhibition of human recombinant MAOB by Lineweaver-Burk plot analysis

## O=C1/C(=C/c2ccccc2O)Oc2cc(O)ccc21
[1]
  IC50: 11500 nM
[2]
  IC50: 17700 nM

## COc1ccc(NC(=O)N2CCc3ccccc32)cc1
[1]
  IC50: 2620 nM
[2]
  IC50: > 100000 nM

## O=C1NC(=O)/C(=C\c2ccc(Br)cc2)S1
[1]
  IC50: 228 nM
[2]
  IC50: 43500 nM
[3]
  inhibition (INH): Active

## CCOC1CC(c2ccccc2)=NN1c1ccc([N+](=O)[O-])cc1 (stereo not drawn)
[1]
  IC50: 921 nM
[2]
  IC50: 5360 nM

## CN(C)c1ccc(/C=C2\Oc3ccccc3C2=O)cc1
[1]
  IC50: 99 nM
[2]
  IC50: 268 nM

## Cc1ccc2c(c1)O/C(=C\c1ccccc1)C2=O
[1]
  IC50: 3350 nM
[2]
  IC50: 40200 nM

## CN(C)c1ccc(/C=C2\Oc3cc(O)ccc3C2=O)cc1
[2]
  IC50: 979 nM

## Cc1[nH]n(-c2ccccc2)c(=O)c1/C=N/NC(=O)c1cccnc1
[1]
  IC50: 13300 nM
[2]
  IC50: > 100000 nM

## O=C1/C(=C/c2ccc(Cl)cc2)Oc2ccccc21
[1]
  IC50: 305 nM
[2]
  IC50: 709 nM
